Values quoted from earlier work, collected in the CATMoS acute toxicity set (Mansouri et al. 2021).
Where “and” joins values, the source holds several entries; their conditions need not be identical. Equal values may be shown once.

Assay: rat acute oral toxicity
Conditions: in vivo
Text: […]The data set underlying the modeling effort for this project was initially compiled by NICEATM and U.S. EPA’s CCTE. Briefly, LD50 data were collected from rat acute oral systemic toxicity tests, including limit tests, ranges/confidence intervals, and discrete LD50 values. The full data set included 21,200 LD50 entries for 15,688 substances. […] Data were reviewed to ensure that LD50 values with obvious errors in the extracted data such as unit conversion errors (e.g., comma and decimal separator misplacements) were either fixed or removed. After this review, 16,209 LD50 values remained. Many of the chemicals represented had multiple LD50 entries, requiring that a single representative value per Chemical Abstracts Service Registry Number (CASRN) identifier be defined to facilitate modeling efforts. Based on ATWG feedback and to define the representative LD50 as a protective value while accounting for the distribution across multiple LD50s, the median of the lowest quartile was computed using only discrete LD50 values (omitting limit test data and range and confidence interval data). A detailed summary of the data compilation is available online on the NICEATM webpage dedicated to the collaborative modeling project (NTP 2020).
[…][…] For categorical designations, limit test and range/confidence interval LD50 data were integrated wherever possible. As such, the number of chemicals with end point values/calls varies across the modeling end points (Table 3) based on whether chemicals had representative LD50 values and/or other data. If a chemical had both, the representative value was used to determine categorical calls rather than limit test data. Some data were useable only for certain end points and categories depending on the thresholds. For example, ranges that spanned multiple hazard categories were considered only for the binary (very toxic/nontoxic) end points and omitted from rendering a determination for hazard category assignment.
[…]The final data set comprising 11,992 chemicals was split into training and evaluation sets […], respectively. This process was performed semirandomly by ordering chemicals based on the five end points (categorical and continuous LD50 values) and partitioning every fourth record into the evaluation set accordingly. This approach was taken to ensure an equivalent distribution of the LD50 values and the different hazard categories between the training and the evaluation sets without supervised sampling of the chemicals based on structures (Figure 1A). The sources of the chemical structures were also kept equivalent between the two sets, with chemical structures obtained from DSSTox, being the highest quality, representing over 75% of each set (Figure 1B).

In order of rising LD50:
1. C=CCI  10 mg/kg
2. CCCCCCCCCCCC[N+](C)(C)CC(=O)[O-]  71 mg/kg
3. CNC(=S)S  108 mg/kg
4. COc1ccc2c3c1O[C@H]1[C@H](N=[N+]=[N-])CC[C@H]4[C@@H](C2)N(C)CC[C@@]341  120 mg/kg
5. c1nc(NC2CC2)c2ncn(C3CC3)c2n1  130 mg/kg
6. Clc1cccc(N2CCNCC2)c1  142 mg/kg
7. O=CN(c1ncnc2c1ncn2C1CC1)C1CC1  175 mg/kg
8. CNC(=O)Oc1ccccc1CCCSC  220 mg/kg
9. CCCCCCCCCCCCOC(C[n+]1ccccc1)c1ccc(C(C)C)cc1 (configuration not stated)  250 mg/kg
10. CCCCC(CC)COC(CBr)c1cccc(Cl)c1 (configuration not stated)  250 mg/kg
11. C=C(OP(=O)(OC)OC)P(=O)(OC)OC  287 mg/kg
12. Cc1ccc(C(=O)c2ccc(CC(=O)O)n2C)cc1  293 mg/kg
13. Nc1ccc(Cl)cc1[N+](=O)[O-]  400 mg/kg
14. CC(CN1CCN(CCOCCO)CC1)CN1c2ccccc2Sc2ccccc21 (configuration not stated)  400 mg/kg
15. O=C(NC(=O)c1c(F)cccc1F)Nc1cc(Cl)c(Oc2ncc(C(F)(F)F)cc2Cl)c(Cl)c1  445 mg/kg
16. CC(C)C(C(=O)OC(C#N)c1ccc(Oc2ccccc2)cc1)c1ccc(Cl)cc1 (configuration not stated)  451 mg/kg
17. COc1ccc(CCNCC(O)COc2cccc(C)c2)cc1OC (configuration not stated)  460 mg/kg
18. CC(C)(C)C(=O)CCl  550 mg/kg
19. CCC(O)(COC(N)=O)c1ccccc1 (configuration not stated)  607 mg/kg
20. Cc1ccccn1  790 mg/kg
21. CC(C(=O)Nc1cc(-c2ccccc2)nn1-c1ccccc1)N(C)C (configuration not stated)  815 mg/kg
22. CC1=Nc2ccc(Cl)cc2S(=O)(=O)N1  980 mg/kg
23. C=CCOC(=O)Nc1ccc(NCc2ccc(F)cc2)nc1N  1030 mg/kg
24. CCCC[N+]1(C)[C@@H]2C[C@@H](OC(=O)[C@H](CO)c3ccccc3)C[C@H]1[C@@H]1O[C@@H]12 (some centres not stated)  1040 mg/kg
25. CO[Si](OC)(OC)c1ccccc1  1050 mg/kg
26. O=[PH](O)c1ccccc1  1340 mg/kg
27. NCC1CC2CCC1C2 (configuration not stated)  1410 mg/kg
28. Cc1nc2ccccc2c(=O)n1-c1ccccc1C(=O)O  1550 mg/kg
29. Cc1ccc(C(C)(C)C)cc1  1560 mg/kg
30. CCCCOCC  1870 mg/kg
31. OC(CN1CCCCC1)c1cc(-c2ccccc2)on1 (configuration not stated)  1980 mg/kg
32. CCOC(=O)NNc1ccc(N(CC)CC(C)O)nn1 (configuration not stated)  2060 mg/kg
33. O=P(O)(O)CCCl  2200 mg/kg
34. N#CCON=C(C#N)c1ccccc1  2280 mg/kg
35. CCO[Si](CCl)(OCC)OCC  2400 mg/kg
36. C=COCCOCCCC  3100 mg/kg
37. CCOC(=O)Cc1ccccc1  3300 mg/kg
38. Oc1ccc(Cl)cc1-c1ccccc1  3500 mg/kg
39. C=CC(C)CCCC(C)(C)O (configuration not stated)  3600 mg/kg
40. COc1cc(OC)cc(OCCO)c1  4050 mg/kg
41. COC(=O)c1ccc(C(=O)OC)cc1  4390 mg/kg
42. O=C(Cn1ccnc1)c1ccc2c(c1)Cc1ccccc1-2  4550 mg/kg
43. CCCCOCCC(=O)O  5190 mg/kg
44. CC(=O)OCC(COc1ccccc1)OC(C)=O (configuration not stated)  5250 mg/kg
45. CC(C)=CCCC(C)CC#N (configuration not stated)  5300 mg/kg
46. CC(CO)CCO (configuration not stated)  5460 mg/kg
47. CC(C)(C)c1cc(Cl)cc(Sc2cc(Cl)cc(C(C)(C)C)c2O)c1O  6100 mg/kg
48. CCCCC(CC)COP(OCC(CC)CCCC)OCC(CC)CCCC (configuration not stated)  6200 mg/kg
49. CC(C)=CCCC(C)CCOC=O (configuration not stated)  8400 mg/kg
50. NC(CCC(=O)O)C(=O)O (racemic)  10000 mg/kg
51. CCCCCCCCCc1cc(C)cc(Cc2cc(C)cc(CCCCCCCCC)c2O)c1O  33000 mg/kg

For `CC(C)(N)Cc1ccc(Cl)cc1`, the LD50 is given as 150 mg/kg and 250 mg/kg.
